In PubChem BioAssay (NCI):
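Results reflect a 48-hour exposure of cells in 96-well plates to compound at five concentrations. TGI denotes the concentration required for complete inhibition of growth.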

Columns and labels:
Assay in all cases: growth of human tumour cells (NCI), 48 h
[1] = test system: XF 498 CNS
[2] = test system: UACC-62 melanoma
[3] = test system: KM12 colon
[4] = test system: NCI-H460 lung
[5] = test system: LOX IMVI melanoma
[6] = test system: SK-OV-3 ovarian
[7] = test system: EKVX NSCLC
[8] = test system: SN12C renal
[9] = test system: TK-10 renal
[10] = test system: ACHN renal
[11] = test system: NCI-H23 lung
[12] = test system: U251 CNS
[13] = test system: SW-620 colon
[14] = test system: CCRF-CEM leukemia
[15] = test system: HOP-62 NSCLC
[16] = test system: A549 NSCLC
[17] = test system: MOLT-4 leukemia
[18] = test system: M19-MEL melanoma
[19] = test system: SF-268 CNS
[20] = test system: SF-295 CNS
[21] = test system: SNB-78 CNS
[22] = test system: HT29 colon
[23] = test system: SNB-75 CNS
[24] = test system: UACC-257 melanoma
[25] = test system: SNB-19 CNS
[26] = test system: KM20L2 colon
[27] = test system: HCC-2998 colon
[28] = test system: HL-60(TB) leukemia
[29] = test system: SK-MEL-5 melanoma
[30] = test system: OVCAR-4 ovarian
[31] = test system: HCT-15 colon
[32] = test system: DLD-1 colon
[33] = test system: K-562 leukemia
[34] = test system: RXF 393 renal
[35] = test system: SF-539 CNS
[36] = test system: SK-MEL-28 melanoma
[37] = test system: MALME-3M melanoma
[38] = test system: COLO 205 colon
[39] = test system: LXFL 529 NSCLC
[40] = test system: NCI-H226 lung
[41] = test system: OVCAR-3 ovarian
[42] = test system: HCT-116 colon
[43] = test system: UO-31 renal
[44] = test system: OVCAR-8 ovarian
[45] = test system: IGROV1 ovarian
[46] = test system: NCI-H522 lung
[47] = test system: M14 melanoma
[48] = test system: 786-0 renal
[49] = test system: DMS 273 small cell lung
[50] = test system: SR leukemia
[51] = test system: SK-MEL-2 melanoma

Cc1nc2c(n1CCN(C)C)C(=O)c1ccccc1C2=O
TGI [1]: 33.1 µM | TGI [2]: 25.8 µM | TGI [3]: 40.9 µM | TGI [4]: 45.5 µM | TGI [5]: 39.1 µM | TGI [6]: > 100 µM | TGI [7]: 32.2 µM | TGI [8]: 35.8 µM | TGI [9]: > 100 µM | TGI [10]: 31.5 µM | TGI [11]: 24.5 µM | TGI [12]: 32.2 µM | TGI [13]: 29 µM | TGI [14]: 47.1 µM | TGI [15]: 78.7 µM | TGI [16]: 52.8 µM | TGI [17]: 62.1 µM | TGI [18]: 4.3 µM | TGI [19]: 72 µM | TGI [20]: 30.9 µM | TGI [21]: 78.9 µM | TGI [22]: 65.1 µM | TGI [23]: > 100 µM | TGI [24]: 27.1 µM | TGI [25]: 76.2 µM | TGI [26]: 25.8 µM | TGI [27]: 47.7 µM | TGI [28]: 30.7 µM | TGI [29]: 20.4 µM | TGI [30]: 29.3 µM | TGI [31]: 26 µM | TGI [32]: 26.9 µM | TGI [33]: 48.4 µM | TGI [34]: 68.2 µM | TGI [35]: 46.3 µM | TGI [36]: > 100 µM | TGI [37]: 8.06 µM | TGI [38]: 16.5 µM | TGI [39]: 37.3 µM | TGI [40]: > 100 µM | TGI [41]: 20 µM | TGI [42]: 33 µM | TGI [43]: 49 µM | TGI [44]: 43.1 µM | TGI [45]: 26.5 µM | TGI [46]: 18.5 µM | TGI [47]: 24.1 µM | TGI [48]: > 100 µM | TGI [49]: 28.8 µM | TGI [50]: 73.2 µM | TGI [51]: 26.2 µM
